According to patent publication US20020035061A1, “COMPOSITIONS AND METHODS FOR TREATING INFECTIONS USING CATIONIC PEPTIDES ALONE OR IN COMBINATION WITH ANTIBIOTICS” (priority 1996, published 2002):
Where two headings read alike, the source gives them in different places.

Legend:
Assay type in all cases: cell-based
S. epidermidis = system: S. epidermidis
A. calcoaceticus = system: A. calcoaceticus
S. aureus = system: S. aureus
K. pneumoniae = system: K. pneumoniae
E. coli = system: E. coli
E. faecalis = system: E. faecalis
S. marcescens = system: S. marcescens
E. faecium = system: E. faecium
P. aeruginosa = system: P. aeruginosa
S. maltophilia = system: S. maltophilia
E. cloacae = E. cloacae strain ECL007
bacterial isolates = assay: microbe, parasite or virus in culture; settings: combination with Ciprofloxacin

| Sequence | MIC (S. epidermidis; S. epidermidis strain SE010) [µg/mL] | MIC (A. calcoaceticus; A. calcoaceticus strain AC002) [µg/mL] | MIC (K. pneumoniae; K. pneumoniae strain KP002) [µg/mL] | MIC (E. coli; E. coli strain ECO002) [µg/mL] | MIC (E. faecalis; E. faecalis strain EFS002) [µg/mL] | MIC (S. marcescens; S. marcescens strain SMS004) [µg/mL] | MIC (E. faecium; E. faecium strain EFM003) [µg/mL] | MIC (S. maltophilia; S. maltophilia strain SMA001) [µg/mL] | MIC (E. cloacae) [µg/mL] | MIC (S. epidermidis; S. epidermidis strain SE002) [µg/mL] | MIC (K. pneumoniae; K. pneumoniae strain KP001) [µg/mL] | MIC (S. maltophilia; S. maltophilia strain SMA002) [µg/mL] | MIC (E. faecium; E. faecium strain EFM001) [µg/mL] | MIC (S. marcescens; S. marcescens strain SMS003) [µg/mL] | MIC (E. coli; E. coli strain ECO003) [µg/mL] | MIC (A. calcoaceticus; A. calcoaceticus strain AC001) [µg/mL] | MIC (P. aeruginosa; P. aeruginosa strain PA003) [µg/mL] | other results |
| --- | --- | --- | --- | --- | --- | --- | --- | --- | --- | --- | --- | --- | --- | --- | --- | --- | --- | --- |
| ILKKWPWWPWRRIMILKKAGS [MBI 11D6CN] | 4 | 4 | >64 | 32 | 4 | >64 | 1 | >64 | >32 |  |  |  |  |  |  |  |  | MIC (S. aureus; S. aureus strain SA009): 8 µg/mL; MIC (P. aeruginosa; P. aeruginosa strain PA024): >64 µg/mL |
| ILKKWAWWPWRRK [MBI 11C3CN] |  | 4 |  | 16 | 32 | >128 |  |  | >128 | 2 | 128 | 64 |  |  |  |  |  | MIC (S. aureus; S. aureus strain SA005): 2 µg/mL; MIC (E. faecium; E. faecium strain EFM002): 1 µg/mL; MIC (P. aeruginosa; P. aeruginosa strain PA005): >128 µg/mL |
| ILKKWPWWPWRRK [MBI 11E2CN] | 4 | 4 | 64 | 8 | 32 | >128 |  | 64 | >128 |  |  |  | 16 |  |  |  |  | MIC (S. aureus; S. aureus strain SA016): 2 µg/mL; MIC (P. aeruginosa; P. aeruginosa strain PA001): >128 µg/mL |
| ILKKFPWFPWRRK [MBI 11A6CN] | 4 | 2 |  |  |  |  |  |  | >128 |  | 32 | 128 |  | >128 |  |  |  | MIC (S. aureus; S. aureus SA016): 2 µg/mL; MIC (S. aureus; S. aureus strain SA014): 4 µg/mL; MIC (S. aureus; S. aureus strain SA093): 0.5 µg/mL; MIC (E. coli; E. coli strain ECO005): 16 µg/mL; MIC (E. faecalis; E. faecalis EFS004): 64 µg/mL; MIC (E. faecalis; E. faecalis strain EFS001): 1 µg/mL; MIC (E. faecalis; E. faecalis strain EFS008): 8 µg/mL; MIC (E. faecium; E. faecium EFM003): 2 µg/mL; MIC (P. aeruginosa; P. aeruginosa strain PA004): >128 µg/mL |
| ILKKWPWWPWR [MBI 11G14CN] |  | 8 | 128 |  | 32 | >128 |  |  | >128 | 8 |  | 128 | 16 |  | 32 |  |  | MIC (S. aureus; S. aureus strain SA013): 0.5 µg/mL; MIC (P. aeruginosa; P. aeruginosa strain PA006): >128 µg/mL |
| ILKKWPWW PWKKK [MBI 11B10CN] | 4 | 2 |  |  | 64 |  | 4 |  | >128 |  | 32 | 128 |  | >128 |  |  |  | MIC (S. aureus; S. aureus strain SA008): 2 µg/mL; MIC (S. aureus; S. aureus strain SA014): 4 µg/mL; MIC (S. aureus; S. aureus strain SA093): 1 µg/mL; MIC (E. coli; E. coli strain ECO005): 16 µg/mL; MIC (E. faecalis; E. faecalis strain EFS001): 8 µg/mL; MIC (E. faecalis; E. faecalis strain EFS008): 64 µg/mL; MIC (P. aeruginosa; P. aeruginosa strain PA004): >128 µg/mL |
| ILKNPNNPWRR [MBI 11G7ACN] |  | 4 | >32 | 16 |  | >32 |  | 32 | >32 | 4 |  |  | 8 |  |  |  |  | MIC (S. aureus; S. aureus strain SA010): 1 µg/mL; MIC (E. faecalis; E. faecalis strain EFS008): 32 µg/mL; MIC (P. aeruginosa; P. aeruginosa strain PA006): >32 µg/mL |
| ILRRWPWWPWRRR [MBI 11B9ACN] |  |  | 32 |  |  | >128 |  | 16 | >128 | 2 |  |  | 4 |  | 8 | 32 |  | MIC (S. aureus; S. aureus strain SA019): 2 µg/mL; MIC (E. faecalis; E. faecalis strain EFS004): 8 µg/mL; MIC (P. aeruginosa; P. aeruginosa strain PA005): >128 µg/mL |
| ILKKWPWWVWRRK [MBI 11F2CN] |  | 4 | 128 | 8 | 32 | >128 |  |  |  | 4 |  | 64 |  |  |  |  |  | MIC (S. aureus; S. aureus strain SA012): 4 µg/mL; MIC (E. faecium; E. faecium strain EFM002): 4 µg/mL; MIC (P. aeruginosa; P. aeruginosa strain PA005): >128 µg/mL |
| ILKKWPWWWRRK [MBI 11G5CN] |  | 4 |  |  | 16 | >128 |  |  | >128 | 2 | >128 | 64 |  |  | 16 |  | >128 | MIC (S. aureus; S. aureus strain SA012): 4 µg/mL; MIC (E. faecium; E. faecium strain EFM002): 8 µg/mL |
| WWKKWPWWPWRRK [MBI 11C5CN] |  |  | 16 |  | 16 | >128 | 2 |  | >128 | 2 |  | 16 |  |  |  | 32 | 64 | MIC (S. aureus; S. aureus strain SA009): 2 µg/mL; MIC (E. coli; E. coli strain ECO001): 8 µg/mL |
| ILKKWPWWAWRRK [MBI 11C4CN] |  | 4 |  |  | 32 | >128 | 2 |  | >128 | 4 | >128 | 64 |  |  |  |  |  | MIC (S. aureus; S. aureus strain SA009): 4 µg/mL; MIC (E. coli; E. coli strain ECO005): 32 µg/mL; MIC (P. aeruginosa; P. aeruginosa strain PA005): >128 µg/mL |
| ILKKYPWYPWRRK [MBI 11A5CN] |  |  |  |  | 32 |  | 4 |  | >128 |  | >128 | >128 |  | >128 | 128 | >128 | >128 | MIC (S. aureus; S. aureus strain SA002): 16 µg/mL |
| LKKWPWWPWRRK [MBI 11D1CN] | 8 |  | 64 | 16 | 32 |  |  | 64 | >128 |  |  |  | 16 | >128 |  | >128 | >128 | MIC (S. aureus; S. aureus strain SA004): 2 µg/mL |
| ILKKWPWWPWRRK [MBI 11E1CN] |  |  | 39 |  | 8 |  |  | 64 | >128 |  |  |  | 8 | >128 | 8 | 32 | 128 | MIC (S. aureus; S. aureus strain SA006): 1 µg/mL |
| ILKKIPIIPIRRK [MBI 11A2CN] |  |  | >128 |  | >128 |  | 16 | >128 | >128 |  |  |  |  |  | >128 | >128 |  | MIC (S. aureus; S. aureus strain SA004): 8 µg/mL; MIC (S. marcescens; S. marcescens strain SBS003): >128 µg/mL; MIC (P. aeruginosa; P. aeruginosa strain PA004): >128 µg/mL; FIC (bacterial isolates; S. aureus SA014): 1.00; FIC (bacterial isolates; S. aureus SA093): 0.75 |
